The values that follow come from publication PMC8957877, “The Resistance of Cancer Cells to Palbociclib, a Cyclin-Dependent Kinase 4/6 Inhibitor, is Mediated by the ABCB1 Transporter” (Frontiers in Pharmacology, 2022).

Data set [1] addresses T1, ABCB1 transporter (Homo sapiens, UniProt P08183).
Data set [2] deals with T1, ABCB1 transporter. Description: biochemical.

T1 sequence (P08183 whole entry): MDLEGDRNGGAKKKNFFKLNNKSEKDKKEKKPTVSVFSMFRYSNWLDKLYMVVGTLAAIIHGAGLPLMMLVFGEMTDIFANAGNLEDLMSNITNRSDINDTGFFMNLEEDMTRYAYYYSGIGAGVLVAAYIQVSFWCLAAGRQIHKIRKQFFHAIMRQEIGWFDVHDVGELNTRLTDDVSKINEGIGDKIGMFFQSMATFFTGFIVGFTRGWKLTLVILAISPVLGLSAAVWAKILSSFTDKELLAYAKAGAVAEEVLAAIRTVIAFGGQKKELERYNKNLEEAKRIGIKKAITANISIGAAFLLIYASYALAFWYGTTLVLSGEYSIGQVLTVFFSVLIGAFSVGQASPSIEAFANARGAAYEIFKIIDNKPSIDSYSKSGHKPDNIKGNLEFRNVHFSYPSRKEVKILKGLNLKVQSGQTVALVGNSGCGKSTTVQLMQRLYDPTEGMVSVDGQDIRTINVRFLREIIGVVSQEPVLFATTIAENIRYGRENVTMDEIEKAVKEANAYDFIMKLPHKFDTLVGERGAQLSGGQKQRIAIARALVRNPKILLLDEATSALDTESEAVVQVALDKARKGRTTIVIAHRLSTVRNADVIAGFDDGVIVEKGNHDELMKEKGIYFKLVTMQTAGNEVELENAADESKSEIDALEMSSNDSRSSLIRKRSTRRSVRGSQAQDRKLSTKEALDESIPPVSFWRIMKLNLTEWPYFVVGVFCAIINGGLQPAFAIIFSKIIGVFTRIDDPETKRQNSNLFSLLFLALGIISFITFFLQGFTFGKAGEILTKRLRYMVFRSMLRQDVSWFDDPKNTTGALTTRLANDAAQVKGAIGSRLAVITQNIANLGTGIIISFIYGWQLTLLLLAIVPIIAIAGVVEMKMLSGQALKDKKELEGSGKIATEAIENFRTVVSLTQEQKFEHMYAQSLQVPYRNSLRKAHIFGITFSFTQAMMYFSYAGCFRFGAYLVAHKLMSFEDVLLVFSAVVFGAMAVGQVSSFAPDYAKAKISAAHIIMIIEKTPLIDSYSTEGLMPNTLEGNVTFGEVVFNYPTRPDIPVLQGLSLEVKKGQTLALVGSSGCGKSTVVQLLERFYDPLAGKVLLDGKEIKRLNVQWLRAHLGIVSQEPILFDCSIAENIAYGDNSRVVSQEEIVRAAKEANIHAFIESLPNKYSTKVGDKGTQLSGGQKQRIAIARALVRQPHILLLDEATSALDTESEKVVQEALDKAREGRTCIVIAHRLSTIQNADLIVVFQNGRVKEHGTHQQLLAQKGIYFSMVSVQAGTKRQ

On to `CC(=O)O[C@H]1C(=O)[C@@]2(C)[C@H]([C@H](OC(=O)c3ccccc3)[C@]3(O)C[C@H](OC(=O)[C@H](O)[C@@H](NC(=O)c4ccccc4)c4ccccc4)C(C)=C1C3(C)C)[C@]1(OC(C)=O)CO[C@@H]1C[C@@H]2O` [[^3H]-paclitaxel], for which the “radiolabelled substrate accumulation/efflux in ABCB1-overexpressing KB-C2 vs par” value in data set [1] was “significantly greater than that of KB-C2 drug-resistant cancer cell line, due to an increase in the extrusion of [^3H]-paclitaxel”.
`CC(=O)c1c(C)c2cnc(Nc3ccc(N4CCNCC4)cn3)nc2n(C2CCCC2)c1=O` [palbociclib] had an EC50 in data set [2] of 4.73 µM.
